Laboratory results published in patent US10829464B2, “Benzoheterocyclic alkylamine compounds and use thereof” (priority 2016, dated 2020).
Converted amounts (≈) assume the structure as drawn. Read-outs that look alike come from different tables or passages of the source.

Key:
CYP enzyme subtype 2C19 = CYP enzyme subtype 2C19 (Homo sapiens, UniProt P33261); assay: Inhibition assay on hepatic CYP450 enzyme; type: in vitro ADME; settings: CYP 2C19; read-out: Half inhibitory concentration (IC50)
Tinea barbae = assay: In vitro antifungal assay (micro liquid-based dilution); type: cell-based; settings: read-out: Antifungal Activities, MIC80
NRS108 = assay: In vivo pharmacodynamics evaluation in infected mice; settings: BALB/c mice infected retroorbitally with NRS108
Procedure: (§1) Compound IA-25 was used as a representative compound. The laboratory SPF-grade female BALB/c mice were purchased from Shanghai Jiesijie Laboratory Animal Co., Ltd. and bred under aseptic condition to 6-8 weeks old. The S. aureus strains which had been cultured overnight were transferred to fresh and sterile TSB medium and cultured at 37° C. and 250 rpm for 3 h to exponential growth phase; the culture was washed twice with PBS buffer, and then suspended in PBS for later use. In the mouse infection assay, the mice were divided into several groups, each containing 10 mice.

NRS271 = assay: as above; settings: BALB/c mice infected retroorbitally with NRS271
Procedure: as §1

LRSA56 = assay: as above; settings: BALB/c mice infected retroorbitally with LRSA56
Procedure: as §1

LRSA202 = assay: as above; settings: BALB/c mice infected retroorbitally with LRSA202
Procedure: as §1

Mu50 [1] = assay: as above; settings: BALB/c mice infected retroorbitally with Mu50
Procedure: as §1

strain Newman = assay: as above; settings: BALB/c mice infected retroorbitally with Newman
Procedure: as §1

NF65Y = assay: as above; settings: BALB/c mice infected retroorbitally with NF65Y
Procedure: as §1

in vitro = settings: mouse, microsomes
CYP enzyme subtype 2C9 = CYP enzyme subtype 2C9 (Homo sapiens, UniProt P11712); assay: Inhibition assay on hepatic CYP450 enzyme; type: in vitro ADME; settings: CYP 2C9; read-out: Half inhibitory concentration (IC50)
USA400 MW2 = assay: IC50 of inhibition of staphyloxanthin synthesis in drug-resistant strain; type: cell-based; settings: Staphylococcus aureus
Procedure: (§2) Selection of compound concentrations: based on the preliminary screening results, the ability of each compound to inhibit staphyloxanthin synthesis was determined. […] According to the assay results, 10 different concentration gradients were designed for each compound, such that the ability to inhibit staphyloxanthin synthesis comprised substantially from 0% to 100%.
(§3) Culture of the strains: single colonies of strain Newman and crtN mutant strain were picked from TSA plates, added into test tubes containing 4 mL of sterile TSB medium, and cultured at 37° C. and 250 rpm for 12 h for later use.
(§4) The relative level of staphyloxanthin synthesis at each concentration of the compound of the invention=A450 (sample)/A450 (negative control)*100%. With the molar concentration of the compound as the abscissa and the relative level of staphyloxanthin synthesis as the ordinate, a curve fitting of inhibitor concentration-inhibition rate (log(inhibitor) vs response) was performed in Graphpad prism 5.0 software, and the IC50 of the compound for inhibiting staphyloxanthin synthesis was calculated by software based on the fitting results.
(§5) In addition to replacement of S. aureus strain Newman with USA 400 MW 2, USA 300 LAC and Mu 50, the rest of the method is the same as in Examples 58-59.
(§6) Compound IA-25 was used as a representative compound. In addition to replacement of S aureus strain Newman with other MRSA strains as described in Table 3, the rest of the method is the same as in Examples 61-62.

USA300 LAC = assay: as above; type: cell-based; settings: Staphylococcus aureus
Procedure: as §2, §3, §4, §5, §6

Mu50 [2] = assay: as above; type: cell-based; settings: Staphylococcus aureus
Procedure: as §2, §3, §4, §5, §6

CrtN = CrtN (Staphylococcus aureus, UniProt O07855); assay: biochemical
Procedure: (1) Preparation of Diapophytoene Emulsion as Substrate […]
After completion of the reaction, the reaction was terminated by adding 500 μL of methanol, and the reaction solution was transferred to a 15 mL centrifuge tube; the reaction solution was added with 700 μL of chloroform, and vortexed thoroughly to extract the reacted staphyloxanthin, and then centrifuged at 7000 rpm for 3 min, and the chloroform layer was carefully pipetted; the remaining reaction solution was extracted by further adding 500 μL of chloroform thereto, and the extracts were combined and concentrated to dryness under vacuum; the concentrated product was dissolved by adding 200 μL of chloroform, and pipetted into a 96-well microplate, and then the absorbance was measured at 450 nm for quantification of the CrtN product diaponeurosporene.

Microsporum gypseum = assay: In vitro antifungal assay (micro liquid-based dilution); type: cell-based; settings: Nannizzia gypsea, read-out: Antifungal Activities, MIC80
Trichophyton rubrum = assay: as above; type: cell-based; settings: read-out: Antifungal Activities, MIC80

Chain of CYP enzyme subtype 2C9 (P11712 whole entry): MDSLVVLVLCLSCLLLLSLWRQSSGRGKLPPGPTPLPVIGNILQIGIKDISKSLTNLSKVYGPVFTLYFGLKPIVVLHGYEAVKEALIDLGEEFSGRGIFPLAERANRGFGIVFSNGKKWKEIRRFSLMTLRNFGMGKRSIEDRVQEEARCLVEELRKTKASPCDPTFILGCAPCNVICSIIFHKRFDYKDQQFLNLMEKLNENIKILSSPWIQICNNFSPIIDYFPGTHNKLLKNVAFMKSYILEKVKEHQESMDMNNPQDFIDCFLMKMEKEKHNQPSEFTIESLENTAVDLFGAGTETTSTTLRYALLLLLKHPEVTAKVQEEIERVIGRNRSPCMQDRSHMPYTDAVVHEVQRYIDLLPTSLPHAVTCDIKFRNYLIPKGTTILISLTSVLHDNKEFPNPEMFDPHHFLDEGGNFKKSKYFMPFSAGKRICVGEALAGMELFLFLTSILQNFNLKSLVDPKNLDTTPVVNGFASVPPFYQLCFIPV
Chain of CrtN (O07855 whole entry): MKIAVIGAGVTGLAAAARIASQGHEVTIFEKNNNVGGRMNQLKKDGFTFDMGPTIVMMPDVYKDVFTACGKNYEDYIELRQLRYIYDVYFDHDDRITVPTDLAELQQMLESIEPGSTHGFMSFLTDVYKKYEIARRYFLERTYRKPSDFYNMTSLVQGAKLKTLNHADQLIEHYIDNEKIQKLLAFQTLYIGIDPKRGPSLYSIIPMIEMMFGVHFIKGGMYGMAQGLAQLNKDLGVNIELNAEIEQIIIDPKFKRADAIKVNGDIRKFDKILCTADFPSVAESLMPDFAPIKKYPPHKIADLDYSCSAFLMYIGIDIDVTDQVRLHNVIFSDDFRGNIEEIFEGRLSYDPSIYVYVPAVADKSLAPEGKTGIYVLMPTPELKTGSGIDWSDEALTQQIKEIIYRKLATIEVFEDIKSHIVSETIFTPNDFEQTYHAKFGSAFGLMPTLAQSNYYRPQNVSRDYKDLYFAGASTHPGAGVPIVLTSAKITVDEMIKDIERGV
Chain of CYP enzyme subtype 2C19 (P33261 whole entry): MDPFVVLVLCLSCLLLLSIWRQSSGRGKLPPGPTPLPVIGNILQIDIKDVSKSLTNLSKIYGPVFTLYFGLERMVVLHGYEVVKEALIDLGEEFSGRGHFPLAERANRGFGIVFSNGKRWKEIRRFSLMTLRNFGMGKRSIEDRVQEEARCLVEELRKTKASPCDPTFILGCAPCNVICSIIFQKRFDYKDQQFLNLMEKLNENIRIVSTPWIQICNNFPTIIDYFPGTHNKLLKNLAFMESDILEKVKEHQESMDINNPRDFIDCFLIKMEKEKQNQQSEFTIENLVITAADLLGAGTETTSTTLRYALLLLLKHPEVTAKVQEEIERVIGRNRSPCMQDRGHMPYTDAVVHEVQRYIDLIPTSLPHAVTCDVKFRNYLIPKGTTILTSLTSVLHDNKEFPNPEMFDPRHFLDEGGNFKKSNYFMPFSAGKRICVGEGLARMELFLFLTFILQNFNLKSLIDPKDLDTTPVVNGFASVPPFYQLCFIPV

Structure (SMILES): CN(C/C=C/c1ccc(-c2ccccc2)cc1)Cc1coc2ccccc12 [Compound IA-25, (E)-N-methyl-N-[(benzofuran-3-yl)methylene]-3-(4-phenylphenyl)-prop-2-en-1-amine]
- IC50 (CYP enzyme subtype 2C19): > 10 µM
- MIC80 (Tinea barbae): > 64 µg/mL
- Viable colony counts in vivo (NRS108): 2.3 Log10CFU
- Viable colony counts in vivo (NRS271): 6.4 Log10CFU
- Viable colony counts in vivo (LRSA56): 3.3 Log10CFU
- Viable colony counts in vivo (LRSA202): 4.9 Log10CFU
- Viable colony counts in vivo (Mu50 [1]): 2.7 Log10CFU
- Viable colony counts in vivo (strain Newman): 3.8 Log10CFU
- Viable colony counts in vivo (NF65Y): 3.5 Log10CFU
- half-life (in vitro): 50 to 120 min
- IC50 (CYP enzyme subtype 2C9): > 10 µM
- IC50 (USA400 MW2; USA400, read-out: IC50, staphyloxanthin synthesis in drug-resistant strain): 1.9 ± 0.5 nM
- IC50 (USA400 MW2; USA400, read-out: Inhibitory activity on staphyloxanthin IC50): 1.9 ± 1.2 nM
- IC50 (USA300 LAC; USA300, read-out: IC50, staphyloxanthin synthesis in drug-resistant strain): 7.9 ± 1.2 nM
- IC50 (USA300 LAC; USA300, read-out: Inhibitory activity on staphyloxanthin IC50): 7.9 ± 0.2 nM
- IC50 (Mu50 [2]; read-out: IC50, staphyloxanthin synthesis in drug-resistant strain): 0.8 ± 1.4 nM
- IC50 (Mu50 [2]; read-out: Inhibitory activity on staphyloxanthin IC50): 0.8 ± 0.01 nM
- IC50 (CrtN): 373 nM
- MIC80 (Microsporum gypseum): 32 µg/mL (≈ 90.5 µM)
- MIC80 (Trichophyton rubrum): 64 µg/mL (≈ 181 µM)
